According to patent publication US9067894B1, “Compound, composition, and method of activating GIRK potassium channel and use of same for treating conditions of interest” (Vanderbilt University, priority 2013, dated 2015):
Entries after “also recorded” stand apart in the source; their conditions may differ.

Legend:
[1] = biological target: T1, GIRK1/3 (Homo sapiens, UniProt P48549+Q92806); test: Thallium flux assay, HEK-293 cells expressing GIRK1/3; type: cell-based; details: cell line GIRK1-3; average ± SEM
T1 construct: expressed in transfected cells; host or cells: HEK-293
T1 sequence (P48549 whole entry): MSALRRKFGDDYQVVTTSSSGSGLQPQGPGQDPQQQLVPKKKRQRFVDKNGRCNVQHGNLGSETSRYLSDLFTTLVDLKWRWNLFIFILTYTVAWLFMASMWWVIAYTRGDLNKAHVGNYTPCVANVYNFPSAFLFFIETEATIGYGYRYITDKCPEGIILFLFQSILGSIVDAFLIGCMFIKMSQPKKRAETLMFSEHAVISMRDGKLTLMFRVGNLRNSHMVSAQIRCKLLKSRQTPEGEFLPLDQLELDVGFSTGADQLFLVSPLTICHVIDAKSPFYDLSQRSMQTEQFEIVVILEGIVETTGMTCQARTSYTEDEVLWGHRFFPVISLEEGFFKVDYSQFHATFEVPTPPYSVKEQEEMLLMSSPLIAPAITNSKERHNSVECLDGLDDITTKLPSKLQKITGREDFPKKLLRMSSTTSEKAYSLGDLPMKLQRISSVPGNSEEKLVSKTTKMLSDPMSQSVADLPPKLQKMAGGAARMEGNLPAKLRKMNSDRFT
T1 sequence (Q92806 whole entry): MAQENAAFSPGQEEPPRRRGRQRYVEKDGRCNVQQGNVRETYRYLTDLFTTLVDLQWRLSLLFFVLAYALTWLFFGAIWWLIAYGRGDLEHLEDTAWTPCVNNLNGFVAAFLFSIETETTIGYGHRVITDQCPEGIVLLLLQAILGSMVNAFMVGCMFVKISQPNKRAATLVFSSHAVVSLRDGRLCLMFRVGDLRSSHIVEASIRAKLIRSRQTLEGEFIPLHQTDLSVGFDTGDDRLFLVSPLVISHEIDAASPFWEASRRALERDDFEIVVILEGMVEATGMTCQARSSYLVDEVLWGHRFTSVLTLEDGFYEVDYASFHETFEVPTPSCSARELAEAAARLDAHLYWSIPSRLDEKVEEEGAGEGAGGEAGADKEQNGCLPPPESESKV
From the text: Cell Line Construction and Cell Culture. HEK-293 cells co-expressing human GIRK1/2 and rat mGlu8 were generated as previously described (Niswender et al., 2008). A HEK-293 cell line (ATCC, Manassas, Va.) expressing human GIRK1 and human GIRK2 was constructed by transfecting HEK-293 cells with GIRK1 and GIRK2 (Origene, Rockville, Md.) cloned into the pBudCE4.1 vector (Life Technologies, Carlsbad, Calif.) using FuGene 6 (Promega, Madison, Wis.) transfection reagent. Unless otherwise noted, other ion channel-expressing cells were prepared by transfecting HEK-293 cells with individual or combinations of subunits: GIRK1, pCMV6-A-BSD; GIRK2, pCMV6-A-puro; GIRK3, pCMV6-A-hygro; GIRK4, pCMV6-A-AC; Kv7.4, pIRESneo3. The Kir2.1 and hERG-expressing cell lines were made by transfecting T-REx-293 cells (Life Technologies, Carlsbad, Calif.) with Kir2.1 and Kv11.1, respectively, cloned into pcDNA5TO. Monoclonal cell lines were produced by limiting-dilution cloning of antibiotic-resistant cells and functional selection using the thallium flux assay described below. Unless otherwise noted, cells were maintained in Minimal Essential Medium, Alpha Medium (Mediatech, Manassas, Va.) supplemented with 10% fetal bovine serum (Sigma-Aldrich, Saint Louis, Mo.) and GlutaGro (Mediatech, Manassas, Va.), referred to henceforth as cell culture medium. […]

[2] = Microsomal clearance, murine liver microsomes; type: in vitro ADME, mouse
Experimental: DMPK Methods. […] After a 5 min preincubation, the reaction was initiated by addition of NADPH (1 mM). At selected time intervals (0, 3, 7, 15, 25, and 45 min), 50 μL aliquots were taken and subsequently placed into a 96-well plate containing 150 μL of cold acetonitrile with internal standard (50 ng/mL carbamazepine). Plates were then centrifuged at 3000 rcf (4° C.) for 10 min, and the supernatant was transferred to a separate 96-well plate and diluted 1:1 with water for LC/MS/MS analysis. […] Liquid Chromatography/Mass Spectrometry Analysis. In vitro experiments. VU0456810 was analyzed on a Thermo Electron TSQ Quantum Ultra triple quad mass spectrometer (San Jose, Calif.) via electrospray ionization (ESI) with two Themo Electron Accella pumps (San Jose, Calif.), and a Leap Technologies CTC PAL autosampler (Carrboro, N.C.). Analytes were separated by gradient elution on a dual column system with two Thermo Hypersil Gold (2.1×30 mm, 1.9 μm) columns (San Jose, Calif.) at 40° C. […] The total run time was 1.3 min and the HPLC flow rate was 0.8 mL/min. […] Compound optimization, data collection and processing were performed using Thermo Electron's QuickQuan software (v2.3) and Xcalibur (v2.0.7 SP1).

[3] = Home cage locomotor activity (SmartCage); type: in vivo, mouse; details: mice, 60 mg/kg i.p., 24 hours after injection
Experimental: The SmartCageTM system ([…], Inc., Burlingame, Calif.) was used to assess compound effects on spontaneous homecage activity. Automated data analysis was performed using CageScoreTM software ([…], Inc.). The home cage activity was determined by beam breaks (x, y, and z photo-beam break counts). Distance traveled in centimeters was obtained from the lower horizontal sensors (x and y) taking into account the path taken. Average velocity was distance traveled/second in the forward direction, averaged over the block time (bin). Mice (male C57/BL6, 8-10 months old, approximately 30 g) mice were assessed continuously for 72 hours. The first 24 hours was used as a habituation period. The locomotion data obtained from the second 24 hours served as the baseline data for each mouse. […] After receiving their respective treatments, each mouse's locomotor activity was monitored over the 24 hours to assess recovery from drug effects.

[4] = biological target: T2, Adrenergic β2 (Homo sapiens, UniProt P07550); test: Radioligand displacement (Ricerca); type: binding
T2 construct: Ricerca
T2 sequence (P07550 whole entry): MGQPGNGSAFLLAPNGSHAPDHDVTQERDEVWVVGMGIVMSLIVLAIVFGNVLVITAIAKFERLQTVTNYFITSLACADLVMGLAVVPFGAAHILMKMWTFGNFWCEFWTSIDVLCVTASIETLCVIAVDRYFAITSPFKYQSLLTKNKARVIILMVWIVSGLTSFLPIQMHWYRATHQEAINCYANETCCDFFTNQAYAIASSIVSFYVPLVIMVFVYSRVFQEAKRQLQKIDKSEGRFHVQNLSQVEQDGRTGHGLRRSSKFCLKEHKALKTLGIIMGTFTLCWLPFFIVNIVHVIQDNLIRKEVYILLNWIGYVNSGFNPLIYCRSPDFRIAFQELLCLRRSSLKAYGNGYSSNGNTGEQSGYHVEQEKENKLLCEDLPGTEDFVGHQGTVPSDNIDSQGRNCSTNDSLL

[5] = biological target: T3, Histamine H1 (Homo sapiens, UniProt P35367); test: Radioligand displacement (Ricerca); type: binding
T3 construct: Ricerca
T3 sequence (P35367 whole entry): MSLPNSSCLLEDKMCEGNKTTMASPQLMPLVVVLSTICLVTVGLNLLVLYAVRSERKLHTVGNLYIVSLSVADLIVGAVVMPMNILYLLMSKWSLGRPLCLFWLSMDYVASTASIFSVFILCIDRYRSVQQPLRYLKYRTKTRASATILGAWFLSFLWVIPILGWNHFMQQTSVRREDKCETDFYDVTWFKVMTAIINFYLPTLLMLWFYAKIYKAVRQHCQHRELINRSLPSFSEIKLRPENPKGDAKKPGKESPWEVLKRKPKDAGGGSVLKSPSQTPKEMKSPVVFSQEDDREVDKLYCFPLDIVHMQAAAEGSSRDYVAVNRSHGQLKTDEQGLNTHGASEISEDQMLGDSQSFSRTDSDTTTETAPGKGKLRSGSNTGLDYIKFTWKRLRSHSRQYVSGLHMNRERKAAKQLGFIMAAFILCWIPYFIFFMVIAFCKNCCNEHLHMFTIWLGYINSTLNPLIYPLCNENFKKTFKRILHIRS

[6] = biological target: T4, Muscarinic M2 (Homo sapiens, UniProt P08172); test: Radioligand displacement (Ricerca); type: binding
T4 construct: Ricerca (contract laboratory that ran the panel)
T4 sequence (P08172 whole entry): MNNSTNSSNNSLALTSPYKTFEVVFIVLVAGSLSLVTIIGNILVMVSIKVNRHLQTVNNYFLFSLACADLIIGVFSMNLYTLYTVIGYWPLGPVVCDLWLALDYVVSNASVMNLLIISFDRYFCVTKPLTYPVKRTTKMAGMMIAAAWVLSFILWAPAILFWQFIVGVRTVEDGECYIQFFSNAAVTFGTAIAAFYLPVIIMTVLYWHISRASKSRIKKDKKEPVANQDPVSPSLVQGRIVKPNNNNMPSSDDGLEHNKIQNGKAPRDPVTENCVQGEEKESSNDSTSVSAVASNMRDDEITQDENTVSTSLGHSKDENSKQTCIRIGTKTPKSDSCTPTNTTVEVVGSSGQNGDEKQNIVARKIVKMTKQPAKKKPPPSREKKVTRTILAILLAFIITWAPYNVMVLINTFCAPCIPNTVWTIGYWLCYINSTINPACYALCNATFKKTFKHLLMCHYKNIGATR

[7] = biological target: T5, Opiate (MOP) (Homo sapiens, UniProt P35372); test: Radioligand displacement (Ricerca); type: binding
T5 construct: Ricerca (contract laboratory that ran the panel)
T5 sequence (P35372 whole entry): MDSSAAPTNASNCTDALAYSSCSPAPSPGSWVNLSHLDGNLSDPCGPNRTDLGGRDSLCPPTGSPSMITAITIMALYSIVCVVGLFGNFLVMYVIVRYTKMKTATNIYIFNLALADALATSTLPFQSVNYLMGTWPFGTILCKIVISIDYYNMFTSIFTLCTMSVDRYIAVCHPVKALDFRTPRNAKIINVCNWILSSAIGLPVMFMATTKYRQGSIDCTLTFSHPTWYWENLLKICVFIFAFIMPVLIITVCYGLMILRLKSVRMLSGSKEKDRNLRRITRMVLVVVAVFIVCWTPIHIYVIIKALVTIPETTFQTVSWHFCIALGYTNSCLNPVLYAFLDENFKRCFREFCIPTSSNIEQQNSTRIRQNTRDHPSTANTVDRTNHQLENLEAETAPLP

[8] = tested on: Phorbol ester; test: Radioligand displacement (Ricerca); type: binding, mouse; details: 10 μM

With `Cc1cc(NC(=O)Nc2ccc(F)c(F)c2)n(-c2ccccc2)n1` [VU0456810, 1-(3,4-difluorophenyl)-3-(3-methyl-1-phenyl-1H-pyrazol-5-yl)urea] the EC50 [1] was 914 ± 264 nM, the “EC50 Thallium Flux” value [1] was “able to activate” and the rClHEP [2] was 88 mL/min/kg. For the same compound, the CLhep predicted at 1 μM ([2]; mouse, pH 7.4) was 88 mL/min/kg, the “locomotor activity in home cage vs vehicle” value [3] was “overall decrease in locomotor activity; also recorded: decreased” and the inhibition at 10 µM [4] was -5%. The inhibition at 10 µM [5] was -7%, the inhibition at 10 µM [6] was -17% and the inhibition at 10 µM [7] was 21%. The “% Inhibition” value [8] was 1%.
